Tested on: H. pylori
Experiment: Antimicrobial activity test 6: oxethazaine in combination with an antibiotic (AMPC, CAM, RXM), checker board method
Assay type: cell-based, Helicobacter pylori
Parameters: key to growth of H. pylori: “−” indicates the inhibited growth of H. pylori (presence of antimicrobial activity); “+” indicates the growth of H. pylori (absence of antimicrobial activity)
Text: The effect of combined use with amoxicillin (AMPC), clarithromycin (CAM) or roxithromycin (RXM) was examined in the same manner as in antimicrobial activity test 1, using the checker board method.

## CN(C(=O)CN(CCO)CC(=O)N(C)C(C)(C)Cc1ccccc1)C(C)(C)Cc1ccccc1 [Oxethazaine, 2,2′-[(2-hydroxyethyl)amino]bis[N-(1,1-dimethyl-2-phenylethyl)-N-methylacetamide]]
89-355, oxethazaine 3.13 + CAM 0 μg/ml
  growth of H. pylori: +
89-355, oxethazaine 6.25 + CAM 0 μg/ml
  growth of H. pylori: +
89-355, oxethazaine 12.5 + CAM 0 μg/ml
  growth of H. pylori: −
89-355, oxethazaine 25 + CAM 0 μg/ml
  growth of H. pylori: −
89-355, oxethazaine 50 + CAM 0 μg/ml
  growth of H. pylori: −
89-355, oxethazaine 100 + CAM 0 μg/ml
  growth of H. pylori: −
89-357, oxethazaine 3.13 + CAM 0 μg/ml
  growth of H. pylori: +
89-357, oxethazaine 6.25 + CAM 0 μg/ml
  growth of H. pylori: +
89-357, oxethazaine 12.5 + CAM 0 μg/ml
  growth of H. pylori: +
89-357, oxethazaine 25 + CAM 0 μg/ml
  growth of H. pylori: −
89-357, oxethazaine 50 + CAM 0 μg/ml
  growth of H. pylori: −
89-357, oxethazaine 100 + CAM 0 μg/ml
  growth of H. pylori: −
90-388, oxethazaine 3.13 + CAM 0 μg/ml
  growth of H. pylori: +
90-388, oxethazaine 6.25 + CAM 0 μg/ml
  growth of H. pylori: +
90-388, oxethazaine 12.5 + CAM 0 μg/ml
  growth of H. pylori: +
90-388, oxethazaine 25 + CAM 0 μg/ml
  growth of H. pylori: −
90-388, oxethazaine 50 + CAM 0 μg/ml
  growth of H. pylori: −
90-388, oxethazaine 100 + CAM 0 μg/ml
  growth of H. pylori: −
90-390, oxethazaine 3.13 + CAM 0 μg/ml
  growth of H. pylori: +
90-390, oxethazaine 6.25 + CAM 0 μg/ml
  growth of H. pylori: +
90-390, oxethazaine 12.5 + CAM 0 μg/ml
  growth of H. pylori: +
90-390, oxethazaine 25 + CAM 0 μg/ml
  growth of H. pylori: −
90-390, oxethazaine 50 + CAM 0 μg/ml
  growth of H. pylori: −
90-390, oxethazaine 100 + CAM 0 μg/ml
  growth of H. pylori: −
EH 12, oxethazaine 3.13 + CAM 0 μg/ml
  growth of H. pylori: +
EH 12, oxethazaine 6.25 + CAM 0 μg/ml
  growth of H. pylori: +
EH 12, oxethazaine 12.5 + CAM 0 μg/ml
  growth of H. pylori: −
EH 12, oxethazaine 25 + CAM 0 μg/ml
  growth of H. pylori: −
EH 12, oxethazaine 50 + CAM 0 μg/ml
  growth of H. pylori: −
EH 12, oxethazaine 100 + CAM 0 μg/ml
  growth of H. pylori: −
EH 13, oxethazaine 3.13 + CAM 0 μg/ml
  growth of H. pylori: +
EH 13, oxethazaine 6.25 + CAM 0 μg/ml
  growth of H. pylori: +
EH 13, oxethazaine 12.5 + CAM 0 μg/ml
  growth of H. pylori: +
EH 13, oxethazaine 25 + CAM 0 μg/ml
  growth of H. pylori: −
EH 13, oxethazaine 50 + CAM 0 μg/ml
  growth of H. pylori: −
EH 13, oxethazaine 100 + CAM 0 μg/ml
  growth of H. pylori: −
Strain 90-388, oxethazaine 3.13 μg/ml, AMPC 0
  growth of H. pylori: +
Strain 90-388, oxethazaine 6.25 μg/ml, AMPC 0
  growth of H. pylori: +
Strain 90-388, oxethazaine 12.5 μg/ml, AMPC 0
  growth of H. pylori: +
Strain 90-388, oxethazaine 25 μg/ml, AMPC 0
  growth of H. pylori: −
Strain 90-388, oxethazaine 50 μg/ml, AMPC 0
  growth of H. pylori: −
Strain 90-388, oxethazaine 100 μg/ml, AMPC 0
  growth of H. pylori: −
Strain 90-390, oxethazaine 3.13 μg/ml, AMPC 0
  growth of H. pylori: +
Strain 90-390, oxethazaine 6.25 μg/ml, AMPC 0
  growth of H. pylori: +
Strain 90-390, oxethazaine 12.5 μg/ml, AMPC 0
  growth of H. pylori: +
Strain 90-390, oxethazaine 25 μg/ml, AMPC 0
  growth of H. pylori: −
Strain 90-390, oxethazaine 50 μg/ml, AMPC 0
  growth of H. pylori: −
Strain 90-390, oxethazaine 100 μg/ml, AMPC 0
  growth of H. pylori: −
Strain 90-397, CAM 0 μg/ml (oxethazaine alone), oxethazaine μg/ml by row r6-r11: 100, 50, 25, 12.5, 6.25, 3.13
  growth of H. pylori: +
Strain 90-397, CAM 0.006 μg/ml, oxethazaine μg/ml: 100, 50, 25, 12.5, 6.25, 3.13, 0
  growth of H. pylori: +
Strain 90-397, CAM 0.012 μg/ml, oxethazaine μg/ml: 100, 50, 25, 12.5, 6.25, 3.13, 0
  growth of H. pylori: +
Strain 90-397, CAM 0.024 μg/ml, oxethazaine μg/ml: 100, 50, 25, 12.5, 6.25, 3.13, 0
  growth of H. pylori: +
Strain 90-397, CAM 0.05 μg/ml, oxethazaine μg/ml: 100, 50, 25, 12.5, 6.25, 3.13, 0
  growth of H. pylori: +
Strain 90-397, CAM 0.1 μg/ml, oxethazaine μg/ml: 100, 50, 25, 12.5, 6.25, 3.13, 0
  growth of H. pylori: −
Strain 90-397, CAM 0.2 μg/ml, oxethazaine μg/ml: 100, 50, 25, 12.5, 6.25, 3.13, 0
  growth of H. pylori: −
Strain 90-397, CAM 0.4 μg/ml, oxethazaine μg/ml: 100, 50, 25, 12.5, 6.25, 3.13, 0
  growth of H. pylori: −
Strain 90-397, CAM 0.8 μg/ml, oxethazaine μg/ml: 100, 50, 25, 12.5, 6.25, 3.13, 0
  growth of H. pylori: −
Strain 90-397, CAM 1.56 μg/ml, oxethazaine μg/ml: 100, 50, 25, 12.5, 6.25, 3.13, 0
  growth of H. pylori: −
Strain 90-397, CAM 3.13 μg/ml, oxethazaine μg/ml: 100, 50, 25, 12.5, 6.25, 3.13, 0
  growth of H. pylori: −
Strain 90-397, CAM 6.25 μg/ml, oxethazaine μg/ml: 100, 50, 25, 12.5, 6.25, 3.13, 0
  growth of H. pylori: −

From patent US6426369B1, “Oxethazaine as antimicrobial agent” (Eisai Co., Ltd., priority 1997, dated 2002)
